Data taken from patent US12447153B2, “HER2 mutation inhibitors” (Array BioPharma Inc., priority 2021, dated 2025).

How the values were obtained:
ErbB2 WT = ErbB2 WT (Homo sapiens (Human), UniProt P04626); assay: ErbB Enzyme Assay (HTRF KinEASE-TK), Assay 2; assay type: biochemical; settings: ErbB2 WT enzyme
EGFR = EGFR (Homo sapiens (Human), UniProt P00533); assay: ErbB Enzyme Assay (HTRF KinEASE-TK), Assay 3; assay type: biochemical; settings: EGFR enzyme
[1] = biological target: ErbB2 with Exon 20 YVMA insertion (HER2-YVMA) (Homo sapiens (Human), UniProt P04626, INS775YVMA); assay: Cellular Phosphorylation Assay, Assay 4 (constitutive ErbB2 phosphorylation, NIH 3T3 cells); assay type: cell-based; settings: ErbB2 YVMA phosphorylation
Chain of ErbB2 with Exon 20 YVMA insertion (HER2-YVMA) (P04626 other isoform, or with tags, fused parts or gaps ins YVMA behind 775): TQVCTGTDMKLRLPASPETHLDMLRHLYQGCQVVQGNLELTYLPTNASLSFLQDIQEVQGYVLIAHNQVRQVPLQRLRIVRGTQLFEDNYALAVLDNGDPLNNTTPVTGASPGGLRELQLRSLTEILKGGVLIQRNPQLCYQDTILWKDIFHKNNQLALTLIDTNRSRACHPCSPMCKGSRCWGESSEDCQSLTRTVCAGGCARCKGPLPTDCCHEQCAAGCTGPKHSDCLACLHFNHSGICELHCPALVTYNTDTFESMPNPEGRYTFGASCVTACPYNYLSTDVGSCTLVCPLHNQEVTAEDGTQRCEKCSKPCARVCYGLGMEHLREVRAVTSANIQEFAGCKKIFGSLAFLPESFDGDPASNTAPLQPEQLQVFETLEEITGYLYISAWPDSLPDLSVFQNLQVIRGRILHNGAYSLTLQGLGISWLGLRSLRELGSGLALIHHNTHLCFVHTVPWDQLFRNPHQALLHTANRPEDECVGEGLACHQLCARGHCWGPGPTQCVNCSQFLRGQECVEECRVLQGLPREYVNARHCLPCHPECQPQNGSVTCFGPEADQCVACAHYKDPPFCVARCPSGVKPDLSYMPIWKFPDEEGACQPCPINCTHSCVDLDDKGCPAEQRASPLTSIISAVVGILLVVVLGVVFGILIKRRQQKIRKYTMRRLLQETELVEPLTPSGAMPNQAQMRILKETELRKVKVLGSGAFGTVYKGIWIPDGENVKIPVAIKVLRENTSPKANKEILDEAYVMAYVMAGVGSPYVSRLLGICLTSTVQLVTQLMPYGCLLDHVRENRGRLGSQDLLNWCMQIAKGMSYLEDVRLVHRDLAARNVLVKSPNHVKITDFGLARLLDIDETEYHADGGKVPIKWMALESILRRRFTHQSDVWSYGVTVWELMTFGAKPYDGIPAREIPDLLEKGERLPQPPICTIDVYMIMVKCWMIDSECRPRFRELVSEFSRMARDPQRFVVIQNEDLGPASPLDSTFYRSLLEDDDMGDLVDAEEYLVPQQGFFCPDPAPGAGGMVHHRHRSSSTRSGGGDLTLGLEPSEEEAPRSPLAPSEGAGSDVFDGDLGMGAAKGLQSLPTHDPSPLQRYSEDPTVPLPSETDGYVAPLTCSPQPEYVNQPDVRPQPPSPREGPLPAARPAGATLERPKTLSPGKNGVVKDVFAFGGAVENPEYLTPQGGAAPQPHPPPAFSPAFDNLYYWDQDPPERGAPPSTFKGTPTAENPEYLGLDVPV

EGFR wild type (EGFR WT) = EGFR wild type (EGFR WT) (Homo sapiens (Human), UniProt P00533); assay: Cellular Phosphorylation Assay, Assay 5 (EGF-stimulated EGFR phosphorylation, NIH 3T3 cells); assay type: cell-based; settings: EGF-stimulated EGFR WT phosphorylation
Chain of EGFR wild type (EGFR WT) (P00533 25-1210): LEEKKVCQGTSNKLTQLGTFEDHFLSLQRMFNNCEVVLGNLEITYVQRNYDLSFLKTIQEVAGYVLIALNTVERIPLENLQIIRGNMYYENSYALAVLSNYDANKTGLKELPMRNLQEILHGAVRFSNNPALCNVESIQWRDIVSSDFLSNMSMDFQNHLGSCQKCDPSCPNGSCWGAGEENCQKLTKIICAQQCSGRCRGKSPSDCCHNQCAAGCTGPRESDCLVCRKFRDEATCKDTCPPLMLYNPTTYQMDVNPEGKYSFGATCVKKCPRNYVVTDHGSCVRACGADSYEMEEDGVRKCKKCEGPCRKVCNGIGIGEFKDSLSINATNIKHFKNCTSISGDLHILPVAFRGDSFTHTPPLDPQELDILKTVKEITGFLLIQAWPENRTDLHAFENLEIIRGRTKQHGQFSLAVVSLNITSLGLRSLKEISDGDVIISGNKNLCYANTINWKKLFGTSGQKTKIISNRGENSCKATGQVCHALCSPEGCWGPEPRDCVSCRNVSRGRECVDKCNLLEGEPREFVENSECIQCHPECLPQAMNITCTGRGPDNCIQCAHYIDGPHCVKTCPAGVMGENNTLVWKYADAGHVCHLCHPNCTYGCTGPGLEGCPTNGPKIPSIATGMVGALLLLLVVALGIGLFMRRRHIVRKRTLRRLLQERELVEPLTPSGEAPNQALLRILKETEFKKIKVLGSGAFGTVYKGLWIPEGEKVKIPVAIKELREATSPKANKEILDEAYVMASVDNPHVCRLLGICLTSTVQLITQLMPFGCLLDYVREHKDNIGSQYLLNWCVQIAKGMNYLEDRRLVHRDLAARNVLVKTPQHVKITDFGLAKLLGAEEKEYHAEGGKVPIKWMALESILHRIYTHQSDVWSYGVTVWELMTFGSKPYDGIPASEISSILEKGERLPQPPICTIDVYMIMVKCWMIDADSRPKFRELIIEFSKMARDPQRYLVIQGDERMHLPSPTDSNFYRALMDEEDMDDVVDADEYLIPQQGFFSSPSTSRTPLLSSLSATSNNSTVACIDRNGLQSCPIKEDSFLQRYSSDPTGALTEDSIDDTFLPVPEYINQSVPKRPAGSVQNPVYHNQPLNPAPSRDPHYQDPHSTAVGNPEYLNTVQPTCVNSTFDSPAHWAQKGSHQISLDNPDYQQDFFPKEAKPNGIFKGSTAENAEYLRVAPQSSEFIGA

BCRP = BCRP (Homo sapiens (Human), UniProt Q9UNQ0); assay: BCRP MDCKII efflux assay (Assay 7); assay type: in vitro ADME; settings: dog; efflux ratio Papp(B-A)/Papp(A-B), BCRP MDCKII cells; read-out: Assay 7 Pe Ratio
Chain of BCRP (Q9UNQ0 whole entry): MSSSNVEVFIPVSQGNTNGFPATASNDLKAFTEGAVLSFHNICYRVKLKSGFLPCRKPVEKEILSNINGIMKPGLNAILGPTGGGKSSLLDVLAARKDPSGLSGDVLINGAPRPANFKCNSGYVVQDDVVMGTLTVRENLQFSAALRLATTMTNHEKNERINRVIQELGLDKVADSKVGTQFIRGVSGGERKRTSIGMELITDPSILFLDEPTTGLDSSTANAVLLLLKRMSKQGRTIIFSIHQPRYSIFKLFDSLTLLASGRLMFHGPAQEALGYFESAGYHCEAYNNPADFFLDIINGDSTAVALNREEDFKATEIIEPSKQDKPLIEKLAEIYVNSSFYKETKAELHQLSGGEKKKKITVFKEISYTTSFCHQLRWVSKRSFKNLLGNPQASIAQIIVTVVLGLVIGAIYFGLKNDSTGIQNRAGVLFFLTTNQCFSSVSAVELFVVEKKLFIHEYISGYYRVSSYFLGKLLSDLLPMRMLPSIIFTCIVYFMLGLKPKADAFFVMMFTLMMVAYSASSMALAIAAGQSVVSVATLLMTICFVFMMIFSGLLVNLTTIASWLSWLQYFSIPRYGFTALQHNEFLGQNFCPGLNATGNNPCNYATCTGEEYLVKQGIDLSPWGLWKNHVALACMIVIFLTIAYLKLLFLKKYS
Method: Assay conditions included with and without the BCRP-specific inhibitor, KO143, at a concentration of 0.3 μM to ascertain the contribution of BCRP to the efflux value of the test compound.
Final organic concentration in the assay was 1%.

MDR1 (P-gp) = MDR1 (P-gp) (Homo sapiens (Human), UniProt P08183); assay: in vitro; settings: pig, LLC-PK1

Chain of EGFR (P00533 25-1210): as the sequence (P00533 25-1210) above

Structure (SMILES)	IC50 (ErbB2 WT)	IC50 (EGFR)	IC50 [1]	IC50 (EGFR wild type (EGFR WT))	efflux ratio at 2 h, 1 µM (BCRP)	efflux ratio at 2 h, 1 µM (MDR1 (P-gp))
C=CC(=O)N1C[C@@H]2C[C@H]1CN2c1ccc2ncnc(Nc3ccc(Oc4ccc5c(c4)ncn5C)c(C)c3F)c2n1 [Example 84, 1-((1S,4S)-5-(4-((2-fluoro-3-methyl-4-((1-methyl-1H-benzo[d]imidazol-5-yl)oxy)phenyl)amino)pyrido[3,2-d]pyrimidin-6-yl)-2,5-diazabicyclo[2.2.1]heptan-2-yl)prop-2-en-1-one]	41 nM	221 nM	7.7 nM	254 nM	3.8	1.9
C=CC(=O)N1CCN(c2ccc3ncnc(Nc4ccc(Oc5ccn6ncnc6c5)c(C)c4F)c3n2)CC1 [Example 96, 1-(4-(4-((4-([1,2,4]triazolo[1,5-a]pyridin-7-yloxy)-2-fluoro-3-methylphenyl)amino)pyrido[3,2-d]pyrimidin-6-yl)piperazin-1-yl)prop-2-en-1-one]	16.7 nM	835 nM	6.8 nM	538 nM	6.1	1.8
C=CC(=O)N1CC2(C1)CN(c1ccc3ncnc(Nc4ccc(Oc5ccn6ncnc6c5)c(Cl)c4F)c3n1)C2 [Example 101, 1-(6-(4-((4-([1,2,4]triazolo[1,5-a]pyridin-7-yloxy)-3-chloro-2-fluorophenyl)amino)pyrido[3,2-d]pyrimidin-6-yl)-2,6-diazaspiro[3.3]heptan-2-yl)prop-2-en-1-one]	39.2 nM	1380 nM	32 nM	≥ 5000 nM	2.5	1.9
C=CC(=O)N1C[C@H]2C[C@@H]1CN(c1ccc3ncnc(Nc4cc(Cl)c(Oc5ccc6c(c5)ncn6C)cc4F)c3n1)C2 [Example 107, 1-((1S,5R)-3-(4-((5-chloro-2-fluoro-4-((1-methyl-1H-benzo[d]imidazol-5-yl)oxy)phenyl)amino)pyrido[3,2-d]pyrimidin-6-yl)-3,6-diazabicyclo[3.2.1]octan-6-yl)prop-2-en-1-one]	237 nM	≥ 10000 nM	17.8 nM	≥ 5000 nM	2.7	1.6
C=CC(=O)N1C[C@@H]2C[C@H]1CN(c1ccc3ncnc(Nc4ccc(Oc5ccc6c(c5)ncn6C)c(C)c4F)c3n1)C2 [Example 109, 1-((1R,5S)-3-(4-((2-fluoro-3-methyl-4-((1-methyl-1H-benzo[d]imidazol-5-yl)oxy)phenyl)amino)pyrido[3,2-d]pyrimidin-6-yl)-3,6-diazabicyclo[3.2.1]octan-6-yl)prop-2-en-1-one]	282 nM	≥ 10000 nM	13.4 nM	≥ 5000 nM	2	2
C=CC(=O)N1[C@H](C)CN(c2ccc3ncnc(Nc4cc(C)c(Oc5ccc6c(c5)ncn6C)cc4F)c3n2)C[C@@H]1C [Example 112, 1-((2S,6R)-4-(4-((2-fluoro-5-methyl-4-((1-methyl-1H-benzo[d]imidazol-5-yl)oxy)phenyl)amino)pyrido[3,2-d]pyrimidin-6-yl)-2,6-dimethylpiperazin-1-yl)prop-2-en-1-one]	57.5 nM	3330 nM	19.8 nM	≥ 5000 nM	5.2	1.4
C=CC(=O)N1C[C@H]2C[C@@H]1CN(c1ccc3ncnc(Nc4ccc(Oc5ccc6c(c5)ncn6C)c(C)c4F)c3n1)C2 [Example 118, 1-((1S,5R)-3-(4-((2-fluoro-3-methyl-4-((1-methyl-1H-benzo[d]imidazol-5-yl)oxy)phenyl)amino)pyrido[3,2-d]pyrimidin-6-yl)-3,6-diazabicyclo[3.2.1]octan-6-yl)prop-2-en-1-one]	54.1 nM	6090 nM	10.1 nM	≥ 5000 nM	4.1	2.2
C=CC(=O)N1CCCC(c2ccc3ncnc(Nc4ccc(Oc5ccc6c(c5)ncn6C)c(C)c4)c3n2)CC1 (stereo not drawn) [Example 121, 1-(4-(4-((3-methyl-4-((1-methyl-1H-benzo[d]imidazol-5-yl)oxy)phenyl)amino)pyrido[3,2-d]pyrimidin-6-yl)azepan-1-yl)prop-2-en-1-one]	30.8 nM	5570 nM	9.1 nM	4580 nM	4	1.9
C=CC(=O)N1CC(c2ccc3ncnc(Nc4ccc(Oc5ccc6c(c5)ncn6C)c(C)c4F)c3n2)CC1C (stereo not drawn) [Example 124, 1-(4-(4-((2-fluoro-3-methyl-4-((1-methyl-1H-benzo[d]imidazol-5-yl)oxy)phenyl)amino)pyrido[3,2-d]pyrimidin-6-yl)-2-methylpyrrolidin-1-yl)prop-2-en-1-one]	29.9 nM	3900 nM	11.4 nM	1940 nM	5.2	1.6
C=CC(=O)N1CCC(c2ccc3ncnc(Nc4ccc(Oc5ccc6c(c5)ncn6C)c(C)c4F)c3n2)CC1(C)C (stereo not drawn) [Example 127, 1-(4-(4-((2-fluoro-3-methyl-4-((1-methyl-1H-benzo[d]imidazol-5-yl)oxy)phenyl)amino)pyrido[3,2-d]pyrimidin-6-yl)-2,2-dimethylpiperidin-1-yl)prop-2-en-1-one]	271 nM	≥ 10000 nM	32.7 nM	≥ 5000 nM	1.6	1.2
C=CC(=O)N1CCC(c2ccc3ncnc(Nc4ccc(Oc5ccc6c(c5)ncn6C)c(C)c4F)c3n2)CC12CC2 (stereo not drawn) [Example 128, 1-(7-(4-((2-fluoro-3-methyl-4-((1-methyl-1H-benzo[d]imidazol-5-yl)oxy)phenyl)amino)pyrido[3,2-d]pyrimidin-6-yl)-4-azaspiro[2.5]octan-4-yl)prop-2-en-1-one]	44.4 nM	≥ 10000 nM	27.7 nM	2620 nM	2.7	0.6
C=CC(=O)N1C[C@H]2C[C@H](c3ccc4ncnc(Nc5cc(C)c(Oc6ccc7c(c6)ncn7C)cc5F)c4n3)C[C@H]2C1 [Example 136, 1-((3aR,5s,6aS)-5-(4-((2-fluoro-5-methyl-4-((1-methyl-1H-benzo[d]imidazol-5-yl)oxy)phenyl)amino)pyrido[3,2-d]pyrimidin-6-yl)hexahydrocyclopenta[c]pyrrol-2(1H)-yl)prop-2-en-1-one]	39.9 nM	≥ 10000 nM	28.6 nM	≥ 5000 nM	1.7	1.7
C=CC(=O)N1C[C@H]2C[C@H](c3ccc4ncnc(Nc5ccc(Oc6ccc7c(c6)ncn7C)c(C)c5F)c4n3)C[C@H]2C1 [Example 138, 1-((3aR,5s,6aS)-5-(4-((2-fluoro-3-methyl-4-((1-methyl-1H-benzo[d]imidazol-5-yl)oxy)phenyl)amino)pyrido[3,2-d]pyrimidin-6-yl)hexahydrocyclopenta[c]pyrrol-2(1H)-yl)prop-2-en-1-one]	22.1 nM	4170 nM	25.1 nM	≥ 5000 nM	1.8	6.8
C=CC(=O)N1CCN(c2ccc3ncnc(Nc4cc(C)c(Oc5ccn6ncnc6c5)cc4F)c3n2)C[C@H]1CC [Example 164, (R)-1-(4-(4-((4-([1,2,4]triazolo[1,5-a]pyridin-7-yloxy)-2-fluoro-5-methylphenyl)amino)pyrido[3,2-d]pyrimidin-6-yl)-2-ethylpiperazin-1-yl)prop-2-en-1-one]	45.8 nM	≥ 10000 nM	14.7 nM	665 nM	2.5	1.1
C=CC(=O)N1CCN(c2ccc3ncnc(Nc4ccc(Oc5cnc6c(c5)ncn6C)c(C)c4F)c3n2)C[C@H]1C1CC1 [Example 165, (R)-1-(2-cyclopropyl-4-(4-((2-fluoro-3-methyl-4-((3-methyl-3H-imidazo[4,5-b]pyridin-6-yl)oxy)phenyl)amino)pyrido[3,2-d]pyrimidin-6-yl)piperazin-1-yl)prop-2-en-1-one]	177 nM	≥ 10000 nM	15.8 nM	≥ 5000 nM	1.6	0.9
C=CC(=O)N1CCN(c2ccc3ncnc(Nc4ccc(Oc5cnc6c(c5)ncn6C)c(C)c4F)c3n2)C[C@@H]1C1CC1 [Example 167, (S)-1-(2-cyclopropyl-4-(4-((2-fluoro-3-methyl-4-((3-methyl-3H-imidazo[4,5-b]pyridin-6-yl)oxy)phenyl)amino)pyrido[3,2-d]pyrimidin-6-yl)piperazin-1-yl)prop-2-en-1-one]	519 nM	≥ 10000 nM	25.1 nM	≥ 5000 nM	1.7	0.9
C=CC(=O)N1C[C@H](c2ccc3ncnc(Nc4ccc(Oc5ccc6c(c5)ncn6C)c(C)c4F)c3n2)CC[C@H]1C [Example 169, 1-((2R,5R)-5-(4-((2-fluoro-3-methyl-4-((1-methyl-1H-benzo[d]imidazol-5-yl)oxy)phenyl)amino)pyrido[3,2-d]pyrimidin-6-yl)-2-methylpiperidin-1-yl)prop-2-en-1-one]	111 nM	1810 nM	23.6 nM	≥ 5000 nM	2.1	1
